The text below walks through data of patent publication US20240229063A1, “TRANSGENIC CORN EVENT ZM_CSM63715 AND METHODS FOR DETECTION AND USES THEREOF” (Monsanto Technology LLC, priority 2022, published 2024).

For the data set, the system named is Cas 12a gRNA target sites on Zea mays B73 chromosome 8. Kind of data set: gRNA target site editing rate by Fragment Length Analysis in stably transformed corn plants. Type of data set: in vivo. The following applies: LbCas12a; for Number of Plants with Target Site Edits: stably transformed corn plants. The text has this:
Agrobacterium T-DNA vectors were designed to evaluate gRNA and LbCas12a nuclease mediated cleavage at the selected target sites. Each T-DNA vector comprised 3 cassettes. The first cassette comprised a plant codon optimized LbCas12a (SEQ ID NO:33) flanked by the same nuclear localization signal sequence (NLS) at the 5′ and 3′ ends (SEQ ID:191), and was operably linked to Zea mays Ubiquitin promoter (SEQ ID NO:192) and a 3′UTR sequence from a rice lipid transfer protein (LTP) gene (SEQ ID NO:193). The second cassette was a unique gRNA cassette targeting one of the 17 targeting sites described in Table 5. The cassette comprised a Zea mays Pol III promoter operably linked to a Cas12a gRNA unit. […] The third cassette was an EPSPS expression cassette encoding a 5-enolpyruvylshikimate-3-phosphate synthase as a selectable marker for selecting transformants in the present of glyphosate.
Corn embryo explants were transformed with the vectors described above by Agrobacterium-mediated transformation. Transformed plants were selected on glyphosate. Leaf samples from regenerated plantlets were harvested, and genomic DNA was extracted for Fragment Length Analysis (FLA). […] The amplicon fragment lengths were subsequently analyzed using capillary electrophoresis, and compared to a wildtype amplicon to identify mutants that had larger or smaller amplicons due to the presence of indels. […] One μl of the PCR product was combined with 0.5 μl of the GeneScan 1200 LIZ Size Standard (Thermo Fisher, MA), 8.5 μl of formamide, and ran on ABI3730 sequencer (Thermo Fisher, MA) to detect amplicon size and analyzed for fragment length variation to identify plants with mutations at the target sites. […] NA denotes that a transformation was performed, but was not successful. gRNA activity was determined by calculating the percentage of plants that contained a target site indel edit out of the total number of plants examined.

Take “ZmTS10: LbCas12a gRNA targeting site ZmTS10 (target SEQ ID NO 183, spacer SEQ ID NO 204) (guide CCACAAGGCTATTCACTCCCTAT; gRNA scaffold not given here)”: the “Number of Plants with Target Site Edits” value turned out to be 32.

As to “ZmTS1: LbCas12a gRNA targeting site ZmTS1 (target SEQ ID NO 174, spacer SEQ ID NO 195) (guide ACCGACTTGGGCATATATTATTT; gRNA scaffold not given here)”, the “Number of Plants with Target Site Edits” value is 16. Besides, the “Target Editing Rate” value (percentage of plants with a target site indel edit out of plants examined) is listed as 11%.
